Experimental data: PMC9841533, “Microtubule-Stabilizing 1,2,4-Triazolo[1,5-a]pyrimidines as Candidate Therapeutics for Neurodegenerative Disease: Matched Molecular Pair Analyses and Computational Studies Reveal New Structure–Activity Insights” (Journal of Medicinal Chemistry, 2022)
Where two headings read alike, the source gives them in different places.

Tests used:
[1] = system: acetylated α-tubulin (AcTub) levels in QBI293 cells; assay: QBI293 cell assay of MT stabilization: acetylated α-tubulin ELISA; format: cell-based
Outline: (§1)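 AcTub and α-Tub were quantified by ELISA in whole-cell extracts normalized by BCA protein and expressed relative to vehicle. AcTub changes were also scaled to a 100 nM reference stabilizer control.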

[2] = system: AcTub levels in OA-treated primary mouse cortical neurons; assay: Okadaic acid (OA) assay, AcTub ELISA in primary mouse cortical neurons; format: cell-based; conditions: OA 15 nM, 8 h, compound 1 and 10 μM
Experimental: To further evaluate the activity of Class I alkyne derivatives and hybrid compounds, several compounds were also assessed for their ability to compensate for MT deficits in primary neuron cultures that were treated with the phosphatase inhibitor, okadaic acid (OA). As previously described,[11] treatment of rodent neurons with OA results in tau hyperphosphorylation and MT collapse that presumably results, at least in part, from tau disengagement from MTs. Co-treatment of neurons with Class I TPDs, such as 1, along with OA prevents this MT collapse, with a resulting normalization of MT structure and neuronal processes which can be observed upon visual inspection of the neurons or through an assessment of neuronal AcTub levels, while Class II TPDs are generally unable to provide meaningful compensation of MT deficits, especially when tested at higher (i.e., 10 μM) compound concentration.[11],[12]
Figure 4 ELISA determination of AcTub levels in homogenates from primary rat cortical neurons treated with either vehicle, or OA (15 nM) in the presence of vehicle or TPD 1, 8, 9 (A); and primary mouse cortical neurons treated with vehicle, or OA (15 nM) in the presence of vehicle or TPD 1, 24, 45, 46, 53, 54 (B). Error bars represent SEM, with ***, p < 0.001 relative to vehicle treatment in the absence of OA as determined by one-way ANOVA.
Compound-induced changes in acetylated-tubulin and α-tubulin in QBI293 cells or primary mouse or rat neurons were as previously described.[11],[12] For compound testing, QBI293 cells were plated at a density of 2 × 10^5 cells/well in 12-well plates. The plated cells were incubated overnight, after which the medium was aspirated and fresh medium containing vehicle (0.25–0.3% DMSO) or test compound was added. Test compounds were prepared as 4–20 mM stock solutions in 100% DMSO, and these were diluted in culture medium prior to addition to the QBI293 cells. After 4 h incubation, whole-cell extracts were prepared from the QBI293 cells as described[11] and the supernatant fraction from each sample was assessed for protein content by bicinchoninic acid (BCA) assay. The amount of acetyl-tubulin (AcTub) and α-tubulin (αTub) within the cell extract samples was quantified using specific enzyme-linked immunosorbent assays (ELISA), as previously described.[11] Acetyl-tubulin levels were determined in a similar manner in rat or mouse cortical neuron cultures in which embryonic dissociated cortical neurons were plated at 3 × 10^5 cells/well in poly-D-lysine-coated 12-well plates, essentially as previously described.[11] The neurons were allowed to grow for 10 days before they were treated for 8 h with 15 nM okadaic acid in the presence or absence of test compound prepared as described above, or vehicle (0.25% DMSO). Culture homogenates were prepared for the determination of AcTub levels by ELISA as previously described.[11]
VehicleVehicleVehicleVehicle25 (1 µM)
Figure S2. Assessment of AcTub levels in primary mouse cortical neurons treated with vehicle,
(§2) (1 picture or pasted object on this page, not shown here)

[3] = system: total α-tubulin (α-Tub) levels in QBI293 cells; assay: QBI293 cell assay: total α-tubulin ELISA; format: cell-based
Outline: as §1

[4] = Resazurin cell viability assay, HeLa; format: cell-based; conditions: human, HeLa cells, three biological replicates, read-out: HeLa CC50 ± SD
Experimental: (§3) Cell Culture. QBI293 and HeLa cells were cultured in DMEM supplemented with 10% heat-
(§4) inactivated FBS and 1% penicillin-streptomycin. Cells were grown in T175 cell culture flasks maintained
(§5) at 37 ℃ in 5% CO2 and sub-c ultured when at 60-8 0% cell confluence.
(§6) Resazurin Cell Viability Assay. Cytotoxicity in QBI293 and HeLa cells was measured using the
(§7) resazurin cell viability assay.1 Test compounds were serially diluted in DMSO and added to 96-well
(§8) polystyrene assay plates to give final assay concentrations ranging from 100 nM to 4000 nM (1 µL; 1%
(§9) total DMSO). Fresh medium was added to the assay plate (49 µL/well). QBI293 or HeLa cells were
(§10) cells/well. Assay plates were incubated at 37 °C and 5% CO2 for 48 h, followed by addition of 20 µL 0.5
(§11) mM resazurin (Alfa Aesar, Cat. B21187) in PBS to each well. Assay plates were incubated in the dark for
as §2
(§12) 4 h at 37 °C. Fluorescence was measured at 531 nm and 595 nm excitation and emission wavelengths,
(§13) respectively, using a 2104 EnVision® multilabel plate reader. The viability of each well was normalized to
(§14) positive and negative controls in each assay plate. Dose-response curves were generated and CC50 values
(§15) calculated with GraphPad Prism, version 9.3 (San Diego, CA) using a sigmoidal four parameter logistic
(§16) curve. The means ± standard deviations from three biological replicates are shown.
(§17) (1) O'Brien, J.; Wilson, I.; Orton, T.; Pognan, F. Investigation of the Alamar Blue (resazurin) fluorescent
(§18) dye for the assessment of mammalian cell cytotoxicity. Eur. J. Biochem. 2000, 267 (17), 5421-5426.

[5] = Resazurin cell viability assay, QBI293; format: cell-based; conditions: human, QBI293 cells, three biological replicates, read-out: QBI293 CC50 ± SD
Experimental: as §3, §4, §5, §6, §7, §8, §9, §10, §11, §2, §12, §13, §14, §15, §16, §17, §18

[6] = system: acetylated α-tubulin (AcTub) levels in QBI293 cells; design: method as in PMID 26980057, PMID 33411523; conditions: 4 h incubation, 10 μM, reported in previous studies; cited from earlier work
[7] = system: total α-tubulin (α-Tub) levels in QBI293 cells; design: method as in PMID 26980057, PMID 33411523; conditions: 4 h incubation, 10 μM, reported in previous studies; cited from earlier work
[8] = 4 h, 1 uM compound, read-out: AcTub (1uM)
[9] = 4 h, 10 uM compound, read-out: AcTub (10 uM)
[10] = 4 h incubation, 1 μM, read-out: AcTub 1 μM, fold-change compared to vehicle (DMSO)-treated cells
[11] = 4 h incubation, 10 μM, read-out: AcTub 10 μM, fold-change compared to vehicle (DMSO)-treated cells
[12] = 4 h, 1 uM compound, read-out: AlfaTub (1uM)
[13] = 4 h, 10 uM compound, read-out: AlfaTub (10 uM)
[14] = 4 h incubation, 1 μM, read-out: α-Tub 1 μM, fold-change compared to vehicle (DMSO)-treated cells
[15] = 4 h incubation, 10 μM, read-out: α-Tub 10 μM, fold-change compared to vehicle (DMSO)-treated cells

Compound | AcTub (1 uM - normalized) ([1]; 1 uM compound) | AcTub (10 uM - normalized) ([1]; 10 uM compound) | fold induction at 1 µM [1, 8] | fold induction at 10 µM [1, 9] | AcTub 1 μM, fold-change compared to positive control compound 5 (100 nM) (in parentheses) ([1]; 4 h incubation, 1 μM) [fold-change] | fold induction at 1 µM [1, 10] | AcTub 10 μM, fold-change compared to positive control compound 5 (100 nM) (in parentheses) ([1]; 4 h incubation, 10 μM) [fold-change] | fold induction at 10 µM [1, 11] | prevention/correction of OA-induced MT collapse (AcTub levels) [2] | fold induction at 1 µM [3, 12] | fold induction at 10 µM [3, 13] | fold induction at 1 µM [3, 14] | fold induction at 10 µM [3, 15] | CC50 at 48 h [4] [nM] | CC50 at 48 h [5] [nM] | AcTub 10 μM, fold-change compared to vehicle (DMSO)-treated cells [6] [fold-change] | α-Tub 10 μM, fold-change compared to vehicle (DMSO)-treated cells [7] [fold-change]
C[C@@H](Nc1c(-c2c(F)cc(OCCCO)cc2F)c(Cl)nc2ncnn12)C(C)(C)C [Compound 25, (R)-3-(4-(5-Chloro-7-((3,3-dimethylbutan-2-yl)amino)-[1,2,4]triazolo[1,5-a]pyrimidin-6-yl)-3,5-difluorophenoxy)propan-1-ol] | 1.01 | 0.98 | 9.17 | 8.92 | 1.01 | 9.17 ± 0.13 | 0.98 | 8.92 ± 0.36 | lesser recovery of OA-induced MT collapse | 0.96 | 1.06 | 0.96 ± 0.03 | 1.06 ± 0.03 |  |  |  | 
CC(C)[C@@H](C)Nc1c(-c2c(F)cc(C#CCCO)cc2F)c(Cl)nc2ncnn12 [Compound 45, (R)-4-(4-(5-Chloro-7-((3-methylbutan-2-yl)amino)-[1,2,4]triazolo[1,5-a]pyrimidin-6-yl)-3,5-difluorophenyl)but-3-yn-1-ol] | 0.48 | 0.82 | 5.9 | 10.1 | 0.48 | 5.9 ± 0.32 | 0.82 | 10.1 ± 0.71 | can prevent the OA-induced MT collapse | 1 | 0.95 | 1 ± 0.03 | 0.95 ± 0.03 |  |  |  | 
C[C@@H](Nc1c(-c2c(F)cc(C#CCCCO)cc2F)c(Cl)nc2ncnn12)C(C)(C)C [Compound 54, (R)-5-(4-(5-Chloro-7-((3,3-dimethylbutan-2-yl)amino)-[1,2,4]triazolo[1,5-a]pyrimidin-6-yl)-3,5-difluorophenyl)pent-4-yn-1-ol] | 0.74 | 0.87 | 4.78 | 5.59 | 0.74 | 4.78 ± 1 | 0.87 | 5.59 ± 0.26 | can prevent the OA-induced MT collapse | 1.19 | 1.14 | 1.19 ± 0.11 | 1.14 ± 0.077 |  |  |  | 
C[C@H](Nc1c(-c2c(F)cc(OCCCO)cc2F)c(Cl)nc2ncnn12)C(F)(F)F [Compound 64] | 1.24 | 0.19 | 6.76 | 1.03 |  |  |  |  |  | 0.73 | 0.37 |  |  | 189 ± 19 | 226 ± 17 | 1.03 ± 0.02 | 0.37 ± 0.02
CC[C@]1(O)C[C@@H]2CN(CCc3c([nH]c4ccccc34)[C@@](C(=O)OC)(c3cc4c(cc3OC)N(C)[C@H]3[C@@](O)(C(=O)OC)[C@H](OC(C)=O)[C@]5(CC)C=CCN6CC[C@]43[C@@H]65)C2)C1 [Vinblastine, reference compound] |  |  |  |  |  |  |  |  |  |  |  |  |  | 2.11 ± 0.1 | 3.23 ± 0.67 |  | 
CC(C)[C@@H](C)Nc1c(-c2c(F)cc(C#CCCCO)cc2F)c(Cl)nc2ncnn12 [Compound 46, (R)-5-(4-(5-Chloro-7-((3-methylbutan-2-yl)amino)-[1,2,4]triazolo[1,5-a]pyrimidin-6-yl)-3,5-difluorophenyl)pent-4-yn-1-ol] | 0.40 | 0.68 | 2.59 | 4.43 | 0.40 | 2.59 ± 0.16 | 0.68 | 4.43 ± 0.56 | can prevent the OA-induced MT collapse | 1 | 1.37 | 1 ± 0.08 | 1.37 ± 0.05 |  |  |  | 
CC(=O)O[C@H]1C(=O)[C@@]2(C)[C@H]([C@H](OC(=O)c3ccccc3)[C@]3(O)C[C@H](OC(=O)[C@H](O)[C@@H](NC(=O)c4ccccc4)c4ccccc4)C(C)=C1C3(C)C)[C@]1(OC(C)=O)CO[C@@H]1C[C@@H]2O [Taxol, reference compound] |  |  |  |  |  |  |  |  |  |  |  |  |  | 1.53 ± 0.26 | 1.29 ± 0.16 |  | 
